# According to patent US4816490A, “Novel therapeutic use of a derivative of indane dione and the pharmaceutical compositions intended for this use” (priority 1987, dated 1989):
# Legend:
# [1] = French patent 2,382,424; cited from earlier work
# [2] = test system: hyperlipidaemia induced by TRITON WR 1339; test: Hyperlipidaemia induced by TRITON WR 1339 in the Wistar rat; type: in vivo; conditions: for Dose dependence of hypolipaemiant activity: 250 and 500 mg/kg
# Description: Feeding by standard Regimen UAR A04
# Drinking water ad libitum
# 6 animals per dose in a cage in MAKROLON of 60×40 cm filled with shavings of wood.
# 10 mn after: administration of the test compound
# 6 hours after: 1st sampling of the blood at the retro-orbital sinus
# Total cholesterol by the colorimetric method of RICHMOND
# Cholesterol in HDL by the colorimetric method of RICHMOND after precipitation by CONCANAVALIN A
# Cholesterol in LDL by the colorimetric method of RICHMOND after precipitation by CONCANAVALIN A
# Total lipids by the Zollner's sulphophosphovanillic method
# Triglycerids by the BUCOLO's enzymatic method.
# [3] = Anti-inflammatory / analgesic activity; type: in vivo; conditions: doses lower than previously disclosed
# Description: The said 2-[(3,4-dimethoxy-benzoyl)-methyl]-2-hydroxy-1,3-dioxo-Indane has been used in the French patent at a dose of 250 mg/kg to induce an anti-inflammatory threshold effect. Consequently, the dosology disclosed in the French patent for the use in human therapy shall range from 400 to 1200 mg daily.
structure (smiles),measurement,setting,value
"COc1ccc(C(=O)CC2(O)C(=O)c3ccccc3C2=O)cc1OC [Compound of the invention, 2-[(3,4-dimethoxy-benzoyl)-methyl]-2-hydroxy-1,3-dioxo Indane]",Dose inducing an anti-inflammatory threshold effect,[1],250 mg/kg
same,Dose dependence of hypolipaemiant activity,[2]; 6 hours after TRITON WR 1339,directly proportional to the doses
same,Dose dependence of hypolipaemiant activity,[2]; 24 hours after TRITON WR 1339,inversely proportional to the dose
same,Total Score vs 250 mg/kg Procetofene,"[2]; 6 hours after, 125 mg/kg oral",2.75
same,Total cholesterol score vs 250 mg/kg Procetofene,"[2]; 6 hours after, 125 mg/kg oral",2.44
same,Triglycerids score vs 250 mg/kg Procetofene,"[2]; 6 hours after, 125 mg/kg oral",0.31
same,Cholesterol HDL/LDL score vs 250 mg/kg Procetofene,"[2]; 6 hours after, 250 mg/kg oral",0.87
same,Total Score vs 250 mg/kg Procetofene,"[2]; 6 hours after, 250 mg/kg oral",3.74
same,Total cholesterol score vs 250 mg/kg Procetofene,"[2]; 6 hours after, 250 mg/kg oral",1.15
same,Total lipids score vs 250 mg/kg Procetofene,"[2]; 6 hours after, 250 mg/kg oral",0.92
same,Triglycerids score vs 250 mg/kg Procetofene,"[2]; 6 hours after, 250 mg/kg oral",0.80
same,Cholesterol HDL/LDL score vs 250 mg/kg Procetofene,"[2]; 6 hours after, 500 mg/kg oral",2.00
same,Total Score vs 250 mg/kg Procetofene,"[2]; 6 hours after, 500 mg/kg oral",4.95
same,Total cholesterol score vs 250 mg/kg Procetofene,"[2]; 6 hours after, 500 mg/kg oral",0.35
same,Total lipids score vs 250 mg/kg Procetofene,"[2]; 6 hours after, 500 mg/kg oral",1.00
same,Triglycerids score vs 250 mg/kg Procetofene,"[2]; 6 hours after, 500 mg/kg oral",1.60
same,Total Score vs 250 mg/kg Procetofene,"[2]; 6 hours after, 750 mg/kg oral",1.72
same,Total cholesterol score vs 250 mg/kg Procetofene,"[2]; 6 hours after, 750 mg/kg oral",0.78
same,Total lipids score vs 250 mg/kg Procetofene,"[2]; 6 hours after, 750 mg/kg oral",0.14
same,Triglycerids score vs 250 mg/kg Procetofene,"[2]; 6 hours after, 750 mg/kg oral",0.80
same,Cholesterol HDL/LDL score vs 250 mg/kg Procetofene,"[2]; 24 hours after, 125 mg/kg oral",1.40
same,Total Score vs 250 mg/kg Procetofene,"[2]; 24 hours after, 125 mg/kg oral",1.94
same,Total cholesterol score vs 250 mg/kg Procetofene,"[2]; 24 hours after, 125 mg/kg oral",0.28
same,Triglycerids score vs 250 mg/kg Procetofene,"[2]; 24 hours after, 125 mg/kg oral",0.26
same,Cholesterol HDL/LDL score vs 250 mg/kg Procetofene,"[2]; 24 hours after, 250 mg/kg oral",1.10
same,Total Score vs 250 mg/kg Procetofene,"[2]; 24 hours after, 250 mg/kg oral",4.64
same,Total cholesterol score vs 250 mg/kg Procetofene,"[2]; 24 hours after, 250 mg/kg oral",1.13
same,Total lipids score vs 250 mg/kg Procetofene,"[2]; 24 hours after, 250 mg/kg oral",1.56
same,Triglycerids score vs 250 mg/kg Procetofene,"[2]; 24 hours after, 250 mg/kg oral",0.85
same,Cholesterol HDL/LDL score vs 250 mg/kg Procetofene,"[2]; 24 hours after, 500 mg/kg oral",0.80
same,Total Score vs 250 mg/kg Procetofene,"[2]; 24 hours after, 500 mg/kg oral",3.66
same,Total cholesterol score vs 250 mg/kg Procetofene,"[2]; 24 hours after, 500 mg/kg oral",0.75
same,Total lipids score vs 250 mg/kg Procetofene,"[2]; 24 hours after, 500 mg/kg oral",1.62
same,Triglycerids score vs 250 mg/kg Procetofene,"[2]; 24 hours after, 500 mg/kg oral",0.49
same,Cholesterol HDL/LDL score vs 250 mg/kg Procetofene,"[2]; 24 hours after, 750 mg/kg oral",0.40
same,Total Score vs 250 mg/kg Procetofene,"[2]; 24 hours after, 750 mg/kg oral",1.73
same,Total cholesterol score vs 250 mg/kg Procetofene,"[2]; 24 hours after, 750 mg/kg oral",0.61
same,Triglycerids score vs 250 mg/kg Procetofene,"[2]; 24 hours after, 750 mg/kg oral",0.72
same,minimal effective dose,"[2]; Rattus norvegicus, TRITON WR 1339, rats, oral, read-out: Oral dose from which hyperlipaemia was antagonized or decreased",≥ 125 mg/kg
same,"Antihyperlipaemiant activity, compound vs Procetofene",[2]; same doses (250 and 500 mg/kg),antihyperlipaemiant activity about equal
same,Anti-inflammatory or analgesic properties at the antilipaemiant doses,[3],does not show anti-inflammatory or analgesic properties
